Patent US20050154042A1, “N-alkyl pyrroles as HMG-CoA reductase inhibitors” (priority 2003, published 2005)
Where a name gives a salt, the structure may show the parent alone.

Key:
[1] = target: T1, HMGCoA (3-Hydroxy-3-methylglutaryl CoA) Reductase (Rattus norvegicus, UniProt P51639); assay: HMGCoA reductase assay with rat liver microsomes (14C-HMGCoA); format: biochemical; details: 45 min at 37° C.
T1 construct: Male Charles River Sprague-Dawley rats were fed with 2.5% cholestyramine in rat chow diets for 5 days before sacrificing; from tissue; host or cells: liver microsomes of male Sprague-Dawley rats fed cholestyramine
T1 sequence (P51639 1-887): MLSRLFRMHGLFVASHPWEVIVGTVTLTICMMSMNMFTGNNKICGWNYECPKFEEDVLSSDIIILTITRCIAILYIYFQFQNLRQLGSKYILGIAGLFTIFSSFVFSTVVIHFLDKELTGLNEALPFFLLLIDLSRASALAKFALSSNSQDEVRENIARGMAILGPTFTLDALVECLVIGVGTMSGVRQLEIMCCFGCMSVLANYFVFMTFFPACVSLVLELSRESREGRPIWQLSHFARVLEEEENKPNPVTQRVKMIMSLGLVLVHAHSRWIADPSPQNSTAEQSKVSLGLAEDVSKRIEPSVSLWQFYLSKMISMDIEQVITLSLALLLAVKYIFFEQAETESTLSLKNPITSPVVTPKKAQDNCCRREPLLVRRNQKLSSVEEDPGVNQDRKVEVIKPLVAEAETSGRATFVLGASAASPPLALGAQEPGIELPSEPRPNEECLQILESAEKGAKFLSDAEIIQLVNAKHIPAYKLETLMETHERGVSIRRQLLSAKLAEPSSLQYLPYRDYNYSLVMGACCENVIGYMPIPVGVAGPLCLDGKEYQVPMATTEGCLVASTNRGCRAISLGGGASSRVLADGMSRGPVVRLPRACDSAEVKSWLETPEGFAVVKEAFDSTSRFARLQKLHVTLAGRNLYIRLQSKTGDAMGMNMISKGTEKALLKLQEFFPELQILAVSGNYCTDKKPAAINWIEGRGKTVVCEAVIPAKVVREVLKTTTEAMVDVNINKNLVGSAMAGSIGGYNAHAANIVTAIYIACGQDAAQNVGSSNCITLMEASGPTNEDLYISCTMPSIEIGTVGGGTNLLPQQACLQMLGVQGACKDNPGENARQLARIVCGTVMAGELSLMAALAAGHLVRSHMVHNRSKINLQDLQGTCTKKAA
Description: (See, e.g., J. of Lipid Research 1998; 39: 75-84; Analytical Biochemistry, 1991; 196: 211-214; RR740-01077 Pharmacology 8, Nov., 1982) Accordingly, such compounds and formulations comprising such compounds are useful for treating, controlling or preventing inter alia hypercholesterolemia, hyperlipidemia, hypertriglyceridemia or atherosclerosis.
Rat Liver Microsomal Isolation Procedure:
Male Charles River Sprague-Dawley rats were fed with 2.5% cholestyramine in rat chow diets for 5 days before sacrificing. Livers were minced and homogenized in a sucrose homogenizing solution in an ice bath 10 times. Homogenates were diluted into a final volume of 200 mL, and centrifuged 15 min. with a Sorvall Centrifuge at 5° C., 10,000 rpm (12,000×G). The upper fat layer was removed and the supernatant decanted into fresh tubes. This step was repeated one more time before transferring the supernatant into ultracentrifuge tubes and centrifuged at 36,000 rpm (105,000×G) for an hour at 5° C. The resulting supernatant was discarded and the pellet was added to total of 15 mL 0.2 M KH2PO4. Pellets were homogenized gently by hand about 10 times. Samples were pooled and diluted into total of 60 mL buffer. The protein concentration of the homogenate was determined by the […] using a BCA kit from Pierce Chemical Company. 1 mL aliquots of microsomes were kept frozen in liquid nitrogen.
HMGCoA (3-Hydroxy-3-methylglutaryl CoA) Reductase Assay:
[3-^14C]-HMGCoA (57.0 mCi/mmol) was purchased from Amersham Biosciences, UK. HMGCoA, mevalonolactone, NADPH were purchased from Sigma Chemical Co. AG 1-8X resin was purchased from Bio-Rad Laboratory.
One μL of dimethyl sulfoxide (DMSO) or 1 μL of DMSO containing a test compound at a concentration sufficient to give a final assay concentration of between 0.1 nM to 1 mM was placed into each well of a Corning 96 well plate. […] Scintillation cocktail (Ultima-Flo-M) was added into each well and plates counted on a Trilux Microbeta Counter. The IC50 values were calculated with GraphPad software (Prism). […]

rat hepatocytes = assay: Sterol biosynthesis in rat hepatocytes (14C acetic acid labeling); format: cell-based; details: Hepatocyte, 14C cholesterol from 14C acetic acid, 4 hrs pre-incubation + 4 hrs labeling
Protocol: Protocol for Sterol Biosynthesis in Rat Hepatocytes:
(§1) Cell Culture, Compounds Treatment and Cell Labeling:
Frozen rat hepatocytes purchased from XenoTech(cat# N400572) were seeded on 6-well collagen I coated plates at a density of […]. The cells were grown in DMEM medium (Gibco, #11054-020) containing 10% FBS and 10 mM HEPES(Gibco # 15630-080) for 24 hrs. The cells were pre-incubated with compounds for 4 hrs and then labeled by incubating in medium containing 1 uCi/per ml of ^14C acetic acid for an additional 4 hrs. After labeling, the cells were washed twice with 5 mM MOPS solution containing 150 mM NaCl and 1 mM EDTA and collected in the lysis buffer containing 10% KOH and 80%(vol.) ethanol.
Cholesterol Extraction and Data Analysis:
In order to separate labeled cholesterol from labeled non-cholesterol lipids, the cells lysates were subject to saponification at 60° C. for 2 hrs. The lysates were then combined with 0.5 volume of H2O and 2 volumes of hexane, followed by 30 minutes of vigorous shaking. After the separation of two phases, the upper-phase solution was collected and combined with 5 volumes of scintillation cocktail. The amount of ^14C cholesterol was quantified by liquid scintillation counting. The IC50 values were calculated with GraphPad software (Prism 3.03).

L6 rat myoblast = assay: Sterol biosynthesis in L6 rat myoblast (14C acetic acid labeling); format: cell-based; details: 14C cholesterol from 14C acetic acid, 3 hours pre-incubation + 3 hours labeling
Protocol: C.) Protocol for Sterol Biosynthesis in L6 Rat Myoblast:
as §1
L6 rat myoblast purchased from ATCC(CRL-1458) were grown in T-150 vented culture flasks and seeded on 12-well culture plates at a density of 60,000 cells per well. The cells were grown in DMEM, (Dulbecco's Modified Eagle Medium) (Gibco, #10567-014) containing 10% heat inactivated FBS (Fetal Bovine Serum) (Gibco # 10082-139) for 72 hours until reaching confluence. The cells were pre-incubated in media with compound and 0.2% DMSO (dimethyl sulfoxide) for 3 hours and then labeled by incubating in medium containing compound, 0.2% DMSO and 1 μCi/per mL of ^14C acetic acid for an additional 3 hours. […]
Lipid ester bonds were hydrolyzed by saponification of the lysates at 60° C. for 2 hours. […] The amount of ^14C cholesterol was quantified by scintillation counting in a Trilux 1450 plate reader (Wallac). The IC50 values were calculated from % inhibitions relative to negative controls vs. compound concentration on Microsoft excel 2000 data analysis wizard using a sigmoid inhibition curve model with formula: y=Bmax(1−(x^n/K^n+x^n))+y2 Where K is the IC50 for the inhibition curve, X is inhibitor concentration, Y is the response being inhibited and Bmax+Y2 is the limiting response as X approaches zero.

| IC50 [1] [nM] | melting point [°C] | SMILES | IC50 (rat hepatocytes) [nM] | IC50 (L6 rat myoblast) [nM] |
| --- | --- | --- | --- | --- |
| 12 | 239 to 241 | CC(C)n1c(CC[C@@H](O)C[C@@H](O)CC(=O)[O-])c(-c2ccc(F)cc2)c(-c2ccccc2)c1C(=O)Nc1ccccc1.[Na+] [Example 1, (3R,5R)-7-[3-(4-fluoro-phenyl)-1-isopropyl-4-phenyl-5-phenylcarbamoyl-1H-pyrrol-2-yl]-3,5-dihydroxy-heptanoic Acid Sodium Salt] | 0.74 | 157 |
| 4.1 |  | CC(C)n1c(CC[C@@H](O)C[C@@H](O)CC(=O)O)c(-c2ccc(F)cc2)c(-c2ccccc2)c1C(=O)Nc1ccc(F)cc1 [Example 6, (3R,5R)-7-[3-(4-Fluoro-phenyl)-5-(4-fluoro-phenylcarbamoyl)-1-isopropyl-4-phenyl-1H-pyrrol-2-yl]-3,5-dihydroxy-heptanoic Acid Sodium Salt] | 0.23 |  |
| 0.61 | > 250 | CC(C)n1c(CCC(O)CC(O)CC(=O)[O-])c(-c2ccc(F)cc2)c(-c2ccccc2)c1C(=O)Nc1ccc(C(=O)[O-])cn1.[Na+].[Na+] (stereo not shown) [Example 25, 6-{[5-(6-Carboxy-3,5-dihydroxy-hexyl)-4-(4-fluoro-phenyl)-1-isopropyl-3-phenyl-1H-pyrrole-2-carbonyl]-amino}-nicotinic Acid di-sodium Salt] | 0.19 | 2270 |
